Like-named read-outs stand apart in the source and are kept apart here.
Assays:
ADAM10 [1] = experiment: Western blot of ADAM10 in 3xTg-AD mouse brain; assay type: in vivo; details: 3xTg-AD mice ~12 months old, 5 mg/kg/day, 2 months
Experimental: (§1) APP C-terminal fragments C99 and C83 are created by beta-secretase and alpha-secretase cleavage respectively. The reduction of both C99 and C83 induced by ST101 could therefore be due to reduction or inhibition of secretases. This hypothesis was tested using Western blots of brain extracts from 3xTg-AD mice from the initial experiment in 12-month-old animals treated with ST101 for 2 months. The only beta-secretase is BACE1 and the constitutive alpha-secretase is ADAM10.
(§2) Western blots were probed with antibodies against BACE1 and ADAM10. FIG. 11A is a series of Western blots depicting levels of proADAM10, ADAM10, proBACE, BACE, Presenilinl and APP-CFTs in brain extracts from ST101 treated 3×TG-AD mice (S) versus control mice (C). C: control brain extract. S: ST101-treated brain extract. Animals were approximately 12 months old at sacrifice after 2 months of treatment with ST101 at 5 mg/kg/day.

BACE = experiment: Western blot of BACE in cynomolgus monkey hippocampus; assay type: in vivo; details: male cynomolgus monkeys, 9 months oral, 100 mg/kg/day
Experimental: (§3) Male cynomolgus monkeys were treated for 9 months with 0, 10, 30 or 100 mg/kg/day ST101 with once daily oral drug administration. Hippocampal brain samples were analyzed in Western blots and ELISAs for APP fragments and Aβ. […] Reductions in a ˜55-kDa fragment were also seen with treatment in these groups. Black outlines depict image level enhancement in Adobe Photoshop CS4, to better visualize weak signals. […] However, long exposures reveal the presence of the 17-kDa APP fragment only in treated monkeys (antibody CT20, Calbiochem). This fragment was not detected in either the 30 or 10 mg/kg/day ST101 groups. Error bars indicate SEM (standard error of the mean) and * indicates statistical significance versus control (p<0.05). (S: ST101-treated animals, versus C: control animals).

SAM-P8 mice = details: vs control mice, cited from earlier work
BACE1 = experiment: Western blot of BACE in 3xTg-AD mouse brain; assay type: in vivo; details: 3xTg-AD mice ~12 months old, 5 mg/kg/day, 2 months
Experimental: as §1, §2

3xTg-AD mice = experiment: Morris Water Maze in 3xTg-AD mice; assay type: in vivo, mouse; details: 2 months; for Morris Water Maze crosses over former platform location, retention testing / Morris Water Maze latency, retention testing: 3xTg-AD mice, 5 mg/kg/day
Experimental: 3xTg-AD mice of approximately one year of age were treated for 2 months with ST101. An average dose of 5 mg/kg/day was administered in drinking water (calculated dose, based on mean water consumption). Behavioral effects were tested by assessing performance on the Morris Water Maze. Biochemical effects were examined by measuring brain content of Aβ and APP by ELISA and Western Blot.
Behavioral Effects: Performance of 3xTg-AD Mice in the Morris Water Maze (MWM), adapted from Roozendaal et al., Proc. Natl. Acad. Sci. U.S.A. 100: 1328-1333 (2003).
The MWM tests both spatial memory (i.e. hippocampus dependent) and cued learning (i.e. non-hippocampal) in rodents. The maze is a circular tank filled with opaque water. Mice are placed in the water and must swim to find and escape onto a platform submerged 1.5 cm beneath the surface of the water. The time (in seconds) required to find the platform is recorded. Animals rely on visual cues in the room containing the tank in order to find the platform on successive challenges. Training was conducted daily for seven consecutive days.
Retention of training was assessed twice, 24 and 72 hours after the final training trial. Animals were subjected to a 60-second free swim in the tank with the platform removed. Parameters measured included (1) latency: time required to reach the former platform location and (2) crosses: the number of times the animal swam across the former platform location.

ubiquitylated proteins = experiment: Anti-ubiquitin Western blot of 3xTg-AD mouse brain; assay type: in vivo
Experimental: Brain extracts from 12-month-old 3xTg-AD mice that had been treated with ST101 (S) at 5/mg/kg/day in drinking water over 2 months were analyzed in Western blots using an anti-ubiquitin antibody (Dako no. Z0448). […] The control (C) samples show a typical high molecular weight “smear” representing a mixture of ubiquitylated proteins.

ADAM17 (TACE) = experiment: Western blot of TACE in 3xTg-AD mouse brain; assay type: in vivo; details: 3xTg-AD mice ~14.5 months old, 5 mg/kg/day in drinking water, 2 months as printed
Experimental: In addition to ADAM10, ADAM17 (TACE, which is Tumor Necrosis Factor converting enzyme) is known to act as an alpha-secretase of APP. Thus, it was tested in a Western blot whether ST101 reduces levels of ADAM17 (TACE).
The Western blot was obtained using a TACE specific antibody in brain extracts from ST101 treated 3×TG-AD mice (S) versus control mice (C). Animals were approximately 14.5 months old at sacrifice after 2 months of treatment with ST101 at 5 mg/kg/day in drinking water.

tau [2] = experiment: Western blot of tau species in 3xTg-AD mouse brain; assay type: in vivo; details: 3xTg-AD mice ~12 months old, 5 mg/kg/day, 2 months, overexposed blot
Excerpt: The status of tau phosphorylation, accumulation and degradation can be assessed in Western blots. Two anti-tau antibodies, directed against non-phosphorylated and phosphorylated tau, were used to probe brain extracts from the initial experiment. FIG. 12 is a series of Western blots depicting levels of full-length tau, tau accumulates, tau degradation products and phosphorylated tau levels in brain extracts from ST101 treated 3×TG-AD mice (S) versus control mice (C). Beta actin levels (Ac) were used as a loading control. P-tau, two panels per antibody: top—normal exposure; bottom—overexposure to visualize minor protein bands. Ac: beta actin antibody as protein loading control. Animals were approximately 12 months old at sacrifice after 2 months of treatment with ST101 at 5 mg/kg/day.

tau [3] = experiment: Tau immunohistochemistry with H7 antibody in 3xTg-AD mice; assay type: in vivo, mouse
Excerpt: The 3xTg-AD mouse model incorporates both pathological hallmarks of Alzheimer's disease: Aβ amyloid plaques and neurofibrillary tangles. Neurofibrillary tangles consist of accumulates of abnormally phosphorylated tau protein. In the 3xTg-AD mice pathological somato-dendritic accumulation of tau can be seen in immunohistochemistry as part of the disease model phenotype.
ST101 effects on tau distribution and accumulation were explored in immunohistochemistry with H7 anti-tau antibody.

Presenilin 1 = experiment: Western blot of Presenilin 1 in 3xTg-AD mouse brain; assay type: in vivo; details: 3xTg-AD mice ~12 months old, 5 mg/kg/day, 2 months
Experimental: as §2

ADAM10 [4] = experiment: Western blot of ADAM10 in cynomolgus monkey hippocampus; assay type: in vivo; details: male cynomolgus monkeys, 9 months oral, 100 mg/kg/day
Experimental: as §3

With `O=C1N=C2C=CC=CN2C12Cc1ccccc1C2` [ST101, spiro(imidazo[1,2-a]pyridin-2(3H)-one-3,2′-indan)] the ADAM-10 protein level (ADAM10 [1]) was “not significantly affected”, the pro-ADAM10 protein level (ADAM10 [1]) was “profound reduction” and the BACE level (BACE) was “no differences”. The senescence scores (SAM-P8 mice; 16 weeks of treatment) was “significant improvement”, the senescence scores (SAM-P8 mice; 32 weeks of treatment) was “significant improvement” and the BACE protein level (BACE1) was “profound reduction”. For the same compound, the Pro-BACE protein level (BACE1) was “not significantly affected”, the “Morris Water Maze latency during training” value (3xTg-AD mice; 3xTg-AD mice ~1 year old, 5 mg/kg/day in drinking water, successive days of 7-day training, vs controls) was “greater reductions in latency” and the “Morris Water Maze crosses over former platform location, retention testing” value (3xTg-AD mice; 24 hours after final training) was “increases in crosses”. The “Morris Water Maze latency, retention testing” value (3xTg-AD mice; 24 hours after final training) was “reductions in latency”, the “Morris Water Maze crosses over former platform location, retention testing” value (3xTg-AD mice; 72 hours after final training) was “increases in crosses” and the “Morris Water Maze latency, retention testing” value (3xTg-AD mice; 72 hours after final training) was “reductions in latency”. For the same compound, the ubiquitylated proteins (ubiquitylated proteins; 3xTg-AD mice 12 months old, 5 mg/kg/day in drinking water, 2 months) was “profound reduction”, the monomeric ubiquitin concentrations (ubiquitylated proteins; 3xTg-AD mice 12 months old, 5 mg/kg/day, 2 months, data not shown) was “largely unaffected” and the ubiquitylated proteins (ubiquitylated proteins; 3xTg-AD mice 14.5 months old, 5 mg/kg/day, ~2.5 months) was “significant reduction”. The TACE levels (ADAM17 (TACE)) was “reduction of TACE levels in the majority of ST101 treated animals”, the “accumulated tau and degradation products” value (tau [2]; H7 antibody) was “disappearance” and the “phosphorylated tau degradation product” value (tau [2]; R-p-tau antibody) was “appearance of a new phosphorylated tau degradation product”. The “neuronal loss, Hematoxylin/Eosin stained control sections” value (tau [3]) was “no neuronal loss”, the “pathological somato-dendritic tau staining” value (tau [3]; hippocampus, H7 anti-tau antibody) was “clear reduction” and the “Presenilin 1 level” value (Presenilin 1) was “did not show significant changes”. For the same compound, the ADAM10 level (ADAM10 [4]) was “no differences”.

From patent US20100298348A1, “Method of Decreasing Ubiquitylated Protein Levels” (priority 2009, published 2010)
